Data set [1] concerns the target T1, recombinant human PDE5 (Homo sapiens, UniProt O76074).
T1 construct: purchased BPS Biosciences, San Diego, CA, USA
Briefly: In vitro PDE5 inhibitory activity (IMAP FP phosphodiesterase assay). The data set is classed as biochemical. The note with it: purified PDE5, 50 nM TAMRA-cGMP, 1.5 h at 30 °C; 10 concentrations, at least two replicates; read-out: PDE5 Inhibition IC50. The protocol: Phosphodiesterase Assay: 5 U/mL of purified PDE5 (BPS Biosciences, San Diego, CA, USA) was added to the wells of black 96-well non-binding plates. Immediately, the protein was treated with the compound or vehicle control and 50 nM TAMRA-cGMP and 50 nM Fluourescein-cAMP (Molecular Devices, Sunnyvale, CA, USA) were added to each assay well. The plates were incubated for 1.5 h at 30 °C. After incubation, the IMAP FP Phosphodiesterase Evaluation Assay (Molecular Devices, Sunnyvale, CA, USA) binding reagent was added to each well and the plates were incubated for an additional 30 min at 30 °C. FP was measured according to manufacturer’s specifications using a Biotech Synergy 4 plate reader. PDE activity was expressed by an IC50 value (50% inhibitory concentration). Data analysis was done through dose-response analysis, which was repeated at least twice to confirm the reproducibility of the IC50 values.
All the synthesized final THβC compounds were tested for their ability to inhibit recombinant human PDE5. Most of the compounds were evaluated in two steps. The first step was the determination of the percentage inhibition at a screening dose of 10 μM performed in triplicate. For compounds displaying a percentage of inhibition >50%, the IC50 was then determined by testing a range of 10 concentrations with at least two replicates per concentration (Table 2).

For orientation: IC50 means the concentration that gives 50% inhibition. One may read the melting point as the temperature of the solid-liquid transition.

Structures are written as SMILES.

For `O=C1[C@@H]2Cc3c([nH]c4ccccc34)[C@@H](c3ccc(Br)cc3)N2C(=O)CN1CCO` [Compound 7m, (6R,12S)-6-(4-Bromo-phenyl)-2-(2-hydroxy-ethyl)-2,3,6,7,12,12a-hexahydro-pyrazino[1’,2’:1,6]pyrido[3,4-b]indole-1,4-dione], the IC50 in data set [1] was 0.6 µM. With `NCCN1CC(=O)N2[C@H](c3ccc(Cl)cc3)c3[nH]c4ccccc4c3C[C@H]2C1=O` [Compound 6n, (6R,12aS)-2-(2-Amino-ethyl)-6-(4-chloro-phenyl)-2,3,6,7,12,12a-hexahydro-pyrazino[1’,2’:1,6]pyrido[3,4-b]indole-1,4-dione], the melting point was 200 to 204 °C. For the same compound, the IC50 in data set [1] is more than 10 µM. In the case of `NCCCCN1CC(=O)N2[C@H](c3ccc(Br)cc3)c3[nH]c4ccccc4c3C[C@@H]2C1=O` [Compound 7d, (6R,12R)-2-(4-Amino-butyl)-6-(4-bromo-phenyl)-2,3,6,7,12,12a-hexahydro-pyrazino[1’,2’:1,6]pyrido[3,4-b]indole-1,4-dione], the IC50 in data set [1] worked out at 2.7 µM.

On to `O=C1[C@H]2Cc3c([nH]c4ccccc34)[C@H](c3ccc(Br)cc3)N2C(=O)CN1CCCCO` [Compound 7g, (6S,12R)-6-(4-Bromo-phenyl)-2-(4-hydroxy-butyl)-2,3,6,7,12,12a-hexahydropyrazino[1’,2’:1,6]pyrido[3,4-b]indole-1,4-dione], for which the IC50 in data set [1] was more than 10 µM. Take `NCCN1CC(=O)N2[C@@H](c3ccc(Br)cc3)c3[nH]c4ccccc4c3C[C@@H]2C1=O` [Compound 7f, (6S,12R)-2-(2-Amino-ethyl)-6-(4-bromo-phenyl)-2,3,6,7,12,12a-hexahydro-pyrazino[1’,2’:1,6]pyrido[3,4-b]indole-1,4-dione]: in data set [1], the IC50 is more than 10 µM. As for `O=C1[C@@H]2Cc3c([nH]c4ccccc34)[C@@H](c3ccc(Br)cc3)N2C(=O)CN1CCCCO` [Compound 7o, (6R,12S)-6-(4-Bromo-phenyl)-2-(4-hydroxy-butyl)-2,3,6,7,12,12a-hexahydropyrazino[1’,2’:1,6]pyrido[3,4-b]indole-1,4-dione], the IC50 in data set [1] came out at 0.82 µM. Same read-out and setting: in the case of `NCCCCN1CC(=O)N2[C@H](c3ccc(Br)cc3)c3[nH]c4ccccc4c3C[C@H]2C1=O` [Compound 7p, (6R,12S)-2-(4-Amino-butyl)-6-(4-bromo-phenyl)-2,3,6,7,12,12a-hexahydro-pyrazino[1’,2’:1,6]pyrido[3,4-b]indole-1,4-dione] it was 3.5 µM; in that of `O=C1[C@H]2Cc3c([nH]c4ccccc34)[C@H](c3ccc(Br)cc3)N2C(=O)CN1CCO` [Compound 7e, (6S,12R)-6-(4-Bromo-phenyl)-2-(2-hydroxy-ethyl)-2,3,6,7,12,12a-hexahydro-pyrazino[1’,2’:1,6]pyrido[3,4-b]indole-1,4-dione], more than 10 µM. In the case of `O=C1[C@@H]2Cc3c([nH]c4ccccc34)[C@@H](c3ccc(Cl)cc3)N2C(=O)CN1CCO` [Compound 6m, (6R,12aS)-6-(4-Chloro-phenyl)-2-(2-hydroxy-ethyl)-2,3,6,7,12,12a-hexahydro-pyrazino[1’,2’:1,6]pyrido[3,4-b]indole-1,4-dione], the melting point was in the range of 202 to 206 °C. In addition, the IC50 in data set [1] is more than 10 µM.

In the case of `NCCN1CC(=O)N2[C@H](c3ccc(Cl)cc3)c3[nH]c4ccccc4c3C[C@@H]2C1=O` [Compound 6b, (6R,12aR)-2-(2-Amino-ethyl)-6-(4-chloro-phenyl)-2,3,6,7,12,12a-hexahydro-pyrazino[1’,2’:1,6]pyrido[3,4-b]indole-1,4-dione], the melting point was in the range of 231 to 234 °C. For the same compound, in data set [1], the IC50 worked out at 3.6 µM. Take `O=C1[C@H]2Cc3c([nH]c4ccccc34)[C@H](c3ccc(Cl)cc3)N2C(=O)CN1CCCCO` [Compound 6g, (6S,12aR)-6-(4-Chloro-phenyl)-2-(4-hydroxy-butyl)-2,3,6,7,12,12a-hexahydropyrazino[1’,2’:1,6]pyrido[3,4-b]indole-1,4-dione]: the melting point was 200 to 203 °C. Besides, in data set [1], the IC50 was more than 10 µM. In the case of `O=C1[C@@H]2Cc3c([nH]c4ccccc34)[C@H](c3ccc(Cl)cc3)N2C(=O)CN1CCO` [Compound 6i, (6S,12aS)-6-(4-Chloro-phenyl)-2-(2-hydroxy-ethyl)-2,3,6,7,12,12a-hexahydro-pyrazino[1’,2’:1,6]pyrido[3,4-b]indole-1,4-dione], the melting point was 231 to 233 °C. In data set [1], the IC50 is more than 10 µM.

With `NCCN1CC(=O)N2[C@@H](c3ccc(Cl)cc3)c3[nH]c4ccccc4c3C[C@@H]2C1=O` [Compound 6f, (6S,12aR)-2-(2-Amino-ethyl)-6-(4-chloro-phenyl)-2,3,6,7,12,12a-hexahydro-pyrazino[1’,2’:1,6]pyrido[3,4-b]indole-1,4-dione], the melting point lay within 200 to 204 °C. The IC50 in data set [1] was more than 10 µM.

As for `NCCCCN1CC(=O)N2[C@@H](c3ccc(Br)cc3)c3[nH]c4ccccc4c3C[C@H]2C1=O` [Compound 7l, (6S,12S)-2-(4-Amino-butyl)-6-(4-bromo-phenyl)-2,3,6,7,12,12a-hexahydro-pyrazino[1’,2’:1,6]pyrido[3,4-b]indole-1,4-dione], in data set [1], the IC50 is more than 10 µM. `O=C1[C@@H]2Cc3c([nH]c4ccccc34)[C@H](c3ccc(Cl)cc3)N2C(=O)CN1CCCCO` [Compound 6k, (6S,12aS)-6-(4-Chloro-phenyl)-2-(4-hydroxy-butyl)-2,3,6,7,12,12a-hexahydropyrazino[1’,2’:1,6]pyrido[3,4-b]indole-1,4-dione] registered a melting point of 227 to 229 °C. In data set [1], the IC50 is 2.31 µM. Take `NCCCCN1CC(=O)N2[C@@H](c3ccc(Cl)cc3)c3[nH]c4ccccc4c3C[C@H]2C1=O` [Compound 6l, (6S,12S)-2-(4-Amino-butyl)-6-(4-chloro-phenyl)-2,3,6,7,12,12a-hexahydro-pyrazino[1’,2’:1,6]pyrido[3,4-b]indole-1,4-dione]: in data set [1], the IC50 was more than 10 µM.

`NCCCCN1CC(=O)N2[C@H](c3ccc(Cl)cc3)c3[nH]c4ccccc4c3C[C@@H]2C1=O` [Compound 6d, (6R,12R)-2-(4-Amino-butyl)-6-(4-chloro-phenyl)-2,3,6,7,12,12a-hexahydro-pyrazino[1’,2’:1,6]pyrido[3,4-b]indole-1,4-dione]: the IC50 in data set [1] was more than 10 µM.

Consider `O=C1[C@H]2Cc3c([nH]c4ccccc34)[C@@H](c3ccc(Br)cc3)N2C(=O)CN1CCO` [Compound 7a, (6R,12R)-6-(4-Bromo-phenyl)-2-(2-hydroxy-ethyl)-2,3,6,7,12,12a-hexahydro-pyrazino[1’,2’:1,6]pyrido[3,4-b]indole-1,4-dione], for which the IC50 in data set [1] turned out to be 0.84 µM.

Consider `NCCCCN1CC(=O)N2[C@@H](c3ccc(Br)cc3)c3[nH]c4ccccc4c3C[C@@H]2C1=O` [Compound 7h, (6S,12R)-2-(4-Amino-butyl)-6-(4-bromo-phenyl)-2,3,6,7,12,12a-hexahydro-pyrazino[1’,2’:1,6]pyrido[3,4-b]indole-1,4-dione], for which the IC50 in data set [1] turned out to be 3.2 µM. In the case of `O=C1[C@H]2Cc3c([nH]c4ccccc34)[C@@H](c3ccc(Br)cc3)N2C(=O)CN1CCCCO` [Compound 7c, (6R,12R)-6-(4-Bromo-phenyl)-2-(4-hydroxy-butyl)-2,3,6,7,12,12a-hexahydropyrazino[1’,2’:1,6]pyrido[3,4-b]indole-1,4-dione], in data set [1], the IC50 turned out to be 0.1 µM. For the compound `NCCN1CC(=O)N2[C@H](c3ccc(Br)cc3)c3[nH]c4ccccc4c3C[C@H]2C1=O` [Compound 7n, (6R,12S)-2-(2-Amino-ethyl)-6-(4-bromo-phenyl)-2,3,6,7,12,12a-hexahydro-pyrazino[1’,2’:1,6]pyrido[3,4-b]indole-1,4-dione], the IC50 in data set [1] was 0.9 µM.

As for `O=C1[C@@H]2Cc3c([nH]c4ccccc34)[C@H](c3ccc(Br)cc3)N2C(=O)CN1CCCCO` [Compound 7k, (6S,12S)-6-(4-Bromo-phenyl)-2-(4-hydroxy-butyl)-2,3,6,7,12,12a-hexahydropyrazino[1’,2’:1,6]pyrido[3,4-b]indole-1,4-dione], in data set [1], the IC50 was more than 10 µM. Consider `NCCN1CC(=O)N2[C@@H](c3ccc(Br)cc3)c3[nH]c4ccccc4c3C[C@H]2C1=O` [Compound 7j, (6S,12S)-2-(2-Amino-ethyl)-6-(4-bromo-phenyl)-2,3,6,7,12,12a-hexahydro-pyrazino[1’,2’:1,6]pyrido[3,4-b]indole-1,4-dione], for which the IC50 in data set [1] is more than 10 µM. For `NCCN1CC(=O)N2[C@H](c3ccc(Br)cc3)c3[nH]c4ccccc4c3C[C@@H]2C1=O` [Compound 7b, (6R,12R)-2-(2-Amino-ethyl)-6-(4-bromo-phenyl)-2,3,6,7,12,12a-hexahydro-pyrazino[1’,2’:1,6]pyrido[3,4-b]indole-1,4-dione], the IC50 in data set [1] is 2.4 µM. As to `O=C1[C@@H]2Cc3c([nH]c4ccccc34)[C@H](c3ccc(Br)cc3)N2C(=O)CN1CCO` [Compound 7i, (6S,12S)-6-(4-Bromo-phenyl)-2-(2-hydroxy-ethyl)-2,3,6,7,12,12a-hexahydro-pyrazino[1’,2’:1,6]pyrido[3,4-b]indole-1,4-dione], the IC50 in data set [1] is more than 10 µM. Take `NCCCCN1CC(=O)N2[C@H](c3ccc(Cl)cc3)c3[nH]c4ccccc4c3C[C@H]2C1=O` [Compound 6p, (6R,12S)-2-(4-Amino-butyl)-6-(4-chloro-phenyl)-2,3,6,7,12,12a-hexahydro-pyrazino[1’,2’:1,6]pyrido[3,4-b]indole-1,4-dione]: the IC50 in data set [1] is more than 10 µM.

(Values after PMC5064235, “Structure-Based Design of Novel Tetrahydro-Beta-Carboline Derivatives with a Hydrophilic Side Chain as Potential Phosphodiesterase Inhibitors” (Scientia Pharmaceutica, 2015).)
